Reference: patent US20030083484A1, “Antisense modulation of short heterodimer partner-1 expression” (priority 2001, published 2003)
Strand notation (5' to 3'): a small letter for the sugar, then the base; units joined by * are phosphorothioate-linked, units joined directly phosphodiester-linked; [ ] holds rarer units or linkages, { } end groups; capitals alone tell only the bases. e = 2'-O-(2-methoxyethyl) (MOE); [5mC] = 5-methylcytosine; d = 2'-deoxy (DNA)

Assays:
[1] = test system: mouse short heterodimer partner-1 mRNA; assay: Dose-response study: inhibition of mouse short heterodimer partner-1 mRNA levels in primary hepatocyte cells, quantitative real-time PCR; format: cell-based; details: averages from two experiments
Protocol: (§1) Primary mouse hepatocytes were prepared from CD-1 mice purchased from Charles River Labs (Wilmington, Mass.) and were routinely cultured in Hepatoyte Attachment Media (Gibco) supplemented with 10% Fetal Bovine Serum (Gibco/Life Technologies, Gaithersburg, Md.), 250 nM dexamethasone (Sigma), and 10 nM bovine insulin (Sigma). Cells were seeded into 96-well plates (Falcon-Primaria #3872) at a density of 10000 cells/well for use in RT-PCR analysis.
(§2) Cells were harvested 16-24 hours after oligonucleotide treatment.
(§3) Vacuum was applied for 15 seconds. […] The elution step was repeated with an additional 60 μL water.
(§4) Total RNA is quantified using RiboGreen™ RNA quantification reagent from Molecular Probes.
(§5) Probes and primers to mouse short heterodimer partner-1 were designed to hybridize to a mouse short heterodimer partner-1 sequence, using published sequence information (GenBank accession number L75567, incorporated herein as SEQ ID NO: 10).
In accordance with the present invention, a subset of the antisense oligonucleotides in Example 16 were further investigated in dose-response studies. Treatment doses were 50, 150 and 300 nM.

[2] = test system: mouse short heterodimer partner-1 mRNA; assay: Inhibition of mouse short heterodimer partner-1 mRNA levels in primary hepatocytes, quantitative real-time PCR; format: cell-based; parameters: concentration or dose not given beside the values; details: averages from two experiments
Protocol: as §1, §2, §3, §4, §5
All cytidine residues are 5-methylcytidines. […] Data are averages from two experiments. If present, “N.D.” indicates “no data”.

## 148284 (antisense eG*eA*eG*eG*e[5mC]*dA*d[5mC]*d[5mC]*dA*dG*dA*d[5mC]*dT*d[5mC]*d[5mC]*eA*eT*eT*e[5mC]*e[5mC]) [compound 148284]
[1]; 50 nM oligonucleotide
  Percent Inhibition of mouse short heterodimer partner-1 mRNA levels: 6%
[1]; 150 nM oligonucleotide
  Percent Inhibition of mouse short heterodimer partner-1 mRNA levels: 55%
[1]; 300 nM oligonucleotide
  Percent Inhibition of mouse short heterodimer partner-1 mRNA levels: 86%
[2]
  % INHIB (inhibition of mouse short heterodimer partner-1 mRNA levels): 77%

## 148286 (antisense eA*eG*eT*e[5mC]*eA*dT*d[5mC]*dA*dA*dG*dG*dG*d[5mC]*dT*dT*eG*e[5mC]*eT*eG*eG) [compound 148286]
[1]; 50 nM oligonucleotide
  Percent Inhibition of mouse short heterodimer partner-1 mRNA levels: 42%
[1]; 150 nM oligonucleotide
  Percent Inhibition of mouse short heterodimer partner-1 mRNA levels: 58%
[1]; 300 nM oligonucleotide
  Percent Inhibition of mouse short heterodimer partner-1 mRNA levels: 80%
[2]
  % INHIB (inhibition of mouse short heterodimer partner-1 mRNA levels): 71%

## 148287 (antisense eG*eT*eT*e[5mC]*eT*dG*dT*dA*d[5mC]*dA*dA*dA*dG*dT*d[5mC]*eA*eG*eG*eA*eG) [compound 148287]
[1]; 50 nM oligonucleotide
  Percent Inhibition of mouse short heterodimer partner-1 mRNA levels: 44%
[1]; 150 nM oligonucleotide
  Percent Inhibition of mouse short heterodimer partner-1 mRNA levels: 71%
[1]; 300 nM oligonucleotide
  Percent Inhibition of mouse short heterodimer partner-1 mRNA levels: 89%
[2]
  % INHIB (inhibition of mouse short heterodimer partner-1 mRNA levels): 74%
